According to US10301308B2, “Azetidine derivatives for tau imaging” (Eli Lilly and Company, priority 2015, dated 2019):

Columns and labels:
[1] = molecular target: PHF (tau from Alzheimer's disease donors) (Homo sapiens, UniProt P10636); assay: Competition radioligand binding versus [18F]AV-1451 on PHF (Ki determination)
From the text: Purified, soluble PHF is isolated from AD brain tissue using a protocol modified from the procedure described by Jicha, et al. (G. A. Jicha, A. O'Donnell, C. Weaver (1999) “Hierarchical phosphorylation of recombinant tau by the paired-helical filament-associated protein kinase is dependent on cyclic AMP-dependent protein kinase” J Neurochem. 72(1):214). Briefly, AD cortex is homogenized using a handheld Kinematica Polytron, followed by high pressure batch—gas expansion using a Parr Cell disruption bomb. Crude homogenate is centrifuged at 28 kg to pellet cell debris. Soluble PHF is isolated from the supernatant by affinity chromatography over an Affigel-10 column on which the tau antibody MCI, which recognizes a pathological conformation of tau, has been immobilized (G. A. Jicha, R. Bowser, I. G. Kazam (1997), “Alz-50 and MC-1, a new monoclonal antibody raised to paired helical filaments, recognize conformational epitopes on recombinant tau” J Neurosci Res. 48(2): 12.)
The IC50 (i.e. the molar concentration of competing ligand which reduces the specific binding of a radioligand by 50%) for the unlabeled compound is determined by competition radioligand binding, in which the binding of [18F]AV-1451 to PHF is competed with unlabeled compound at various concentrations. […]

tau protein = assay: Clinical PET imaging of tau protein in the brain (SUVr); assay type: in vivo, human; conditions: AD subjects vs healthy controls
Protocol: (§1) Clinical evaluation of 3-(3-[18F]-Fluoroazetidin-1-yl)-8-methylbenzo[4,5]imidazo[1,2-a]pyridine (Compound 8) as a PET radioligand for imaging tau protein deposition in patients with AD or other neurodegenerative disorders is conducted in healthy volunteers. AD patients, or Chronic Traumatic Encephalopathy (CTE) subjects, by completion of one or more PET scans with Compound 8. Dynamic PET imaging is acquired on a Siemens ECAT EXACT HR+ over 150 minutes following Compound 8 or [18F]AV-1451 injection (0-60 and 90-150 minute imaging segments). Compound 8 or [18F]AV-1451 scans are acquired similarly in two imaging sessions. A brain MRI is also obtained. PET and MRI images are aligned and normalized, and ATLAS-based volumes of interest (VOI) are applied to the dynamic PET series. Compound 8 or [18F]AV-1451 are evaluated in terms of kinetic profile as well as target region to cerebellum standardized uptake value ratio (SUVr between 100-120 min) between healthy volunteers and AD or CTE subjects.

[2] = Clinical PET kinetic profile: brain uptake, washout, metabolism; assay type: in vivo, human; conditions: human subjects, dynamic PET
Protocol: as §1

[3] = system: native tau aggregates vs native β-amyloid aggregates in human brain sections; assay: Autoradiography selectivity towards tau versus β amyloid in AD human brain tissue; assay type: binding; conditions: for selectivity ratio for Tau:Aβ: 5 Tau+Aβ+ and 2 Tau-Aβ+ brain specimens; for grey matter to white matter (GM/WM) signal ratio: autoradiography, Tau+Aβ+ brain specimens; for binding sites observed in autoradiography: human brain sections Groups A, B, C
From the text: Based on the anti-tau and anti-amyloid immunostaining results of brain sections, three groups of human brain sections are selected for autoradiography experiments to determine the native tau-binding selectivity of 3-(3-[18F]-fluoroazetidin-1-yl)-8-methylbenzo[4,5]imidazo[1,2-a]pyridine. Group A are tau-rich AD brain slices (labeled as Tau+Aβ+), Group B are tau-poor AD brain slices (marked as Tau-Aβ+), and Group C are Tau-Aβ− normal brain slices. […] The human AD brain sections in Group B are #33562, #32656, #33998, #35682, and #33563. The normal human brain sections in group C are #29092 and #32566. Tissue slices from the same donors are used to calculate selectivity for all three compounds for testing according to Assay Example 5. Autoradiography is performed for each of these three groups of brains on adjacent 10 μm sections with the amyloid tracer [18F]W372 to quantify the β-amyloid burden. [18F]W372 is a selective amyloid binding tracer discovered by Siemens and evaluated under IND 105173. Sections are covered with 0.5 ml of 3-(3-[18F]-fluoroazetidin-1-yl)-8-methylbenzo[4,5]imidazo[1,2-a]pyridine (in 2.5:2.5:95 DMSO:EtOH:1×PBS, about 20 μCi/slide) and incubated for 1.5 hrs. Then successive washing cycles (1 min PBS, 2 min 30% EtOH/PBS, 2 min 70% EtOH/PBS, 1 min PBS) are employed to remove any unbound tracer. The sections are air dried, placed on a phosphorimaging plate (Fuji IP plate), and exposed overnight. The IP plate is read using a GE Healthcare Life Sciences Typhoon FLA 7000 Phosphorimager. The signal intensity of the grey matter is measured using Fujifilm Multi Gauge software. After subtracting the background signal (signal in the cortex region of Group C), the signal of individual sections of Group A and B are normalized with corresponding signal from autoradiography of the respective adjacent sections with [18F]W372. The calculations are based on Group B brain sections #32656 and #33998, which have undetectable tau pathology by immunohistochemistry. The normalized signal for 3-(3-[18F]-fluoroazetidin-1-yl)-8-methylbenzo[4,5]imidazo[1,2-a]pyridine in Group B brain sections is the relative signal level of 3-(3-[18F]-fluoroazetidin-1-yl)-8-methylbenzo[4,5]imidazo[1,2-a]pyridine to [F-18]W372 resulting from binding to native β-amyloid aggregates. The binding level of 3-(3-[18F]-fluoroazetidin-1-yl)-8-methylbenzo[4,5]imidazo[1,2-a]pyridine to native tau-aggregates in Group A sections is estimated by subtracting the amount of the total signal attributable to binding to 3-amyloid (calculated by multiplying the total signal from [18F]W372 binding to β-amyloid in the adjacent section by the relative signal of 3-(3-[18F]-fluoroazetidin-1-yl)-8-methylbenzo[4,5]imidazo[1,2-a]pyridine to [18F]W372 determined from the Group B sections). The resulting difference is then divided by the signal attributable to binding to β-amyloid to estimate the selectivity of 3-(3-[18F]-fluoroazetidin-1-yl)-8-methylbenzo[4,5]imidazo[1,2-a]pyridine. […] The selectivity of 3-(3-[18F]-fluoroazetidin-1-yl)-8-methylbenzo[4,5]imidazo[1,2-a]pyridine binding to native tau aggregates vs. binding native β-amyloid aggregates is reflected by the ratio of Group A (Tau+Aβ+) signal to the signal of the brain sections #32656 and #33998.

[4] = Mouse PET/CT time activity curves; assay type: in vivo, CD-1 wild type mice; conditions: mouse PET/CT time activity curves
Protocol: Dynamic Micro-Positron Emission Tomography (mPET) images are obtained from CD-1 wild type mice using 3-(3-[18F]-fluoroazetidin-1-yl)-8-methylbenzo[4,5]imidazo[1,2-a]pyridine. Micro-Computed Tomography (mCT) of each subject is used as anatomical reference for image analysis. Biodistribution of the tracer in brain, muscle, bone, liver, and kidney is assessed by generating Time Activity Curves (TAC) using the fused mPET/mCT images. An INVEON multimodality scanner (Siemens, Germany) is used for mPET/mCT. All animal work is performed in accordance with the University of Sciences Institutional Animal Care & Use Committee-approved procedures.
Animals are anesthetized with 3% isoflurane/97% oxygen and are placed on the scanner bed. A short high-resolution CT scan is first performed for anatomical registration, followed by a 120-minute PET scan. During the PET scan a water heating system is placed underneath the bed to help maintain the body temperature. Within 3 minutes after the beginning of the PET acquisition, the [18F]-labeled compound 3-(3-[18F]-fluoroazetidin-1-yl)-8-methylbenzo[4,5]imidazo[1,2-a]pyridine is administered to the animals via tail vein injection (250 uCi in a total volume of 200 uL saline). A PET image is generated for each minute of the acquisition time. Uptake of the tracer is obtained by visually drawing regions of interest based on the fused PET/CT images, and the corresponding activity values are determined using the INVEON Research Workplace software (Siemens, Germany). All values are represented as percent injected dose per gram (% ID/g).
The mouse PET/CT time activity curves of 3-(4-(2-[18F]-fluoroethyl)piperidin-1-yl)-8-methoxybenzo[4,5]imidazo[1,2-a]pyridine (T821) (See FIG. 9) and of 3-(4-[18F]-fluoropiperidin-1-yl)-8-methoxybenzo[4,5]imidazo[1,2-a]pyridine (T798) (See FIG. 10) are obtained as described in Assay Example 7 (T821 and T798 are recited in US2011/0182812). […] Therefore, when imaging with T821 and/or T798, the undesirable non-tau PET signals from the skull bones could interfere with desired tau signals from the brain cortex. Thus, in addition to the lack of selectivity for T821 and T798, these compounds would further represent poor candidates for human brain tau PET tracers because of the interfering radioactivity signal from bone. […] The advantageous properties of Compound 8 are useful to provide enhanced tau PET imaging in humans. This combination of critical properties was not known and could not have been predicted from existing tau imaging compounds.

Sequence of PHF (tau from Alzheimer's disease donors) (P10636 623-695 limits assumed): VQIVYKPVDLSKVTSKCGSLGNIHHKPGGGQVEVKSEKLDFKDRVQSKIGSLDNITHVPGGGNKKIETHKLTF

| SMILES | Ki ([1]; tau obtained from donors with Alzheimer's disease, from IC50 by Cheng-Prusoff) [nM] | Kd ([1]; value used in the Cheng-Prusoff equation, read-out: Kd, dissociation constant of the radioligand) [nM] | uptake in cortical brain regions, AD subjects compared with healthy controls (tau protein) | peak brain uptake [2] [SUV] | selectivity ratio for Tau:Aβ [3] | grey matter to white matter (GM/WM) signal ratio [3] | binding sites observed in autoradiography [3] | bone uptake of radioactivity [4] |
| --- | --- | --- | --- | --- | --- | --- | --- | --- |
| Cc1ccc2nc3cc(N4CC(F)C4)ccn3c2c1 [Compound 4, 3-(3-fluoroazetidin-1-yl)-8-methylbenzo[4,5]imidazo[1,2-a]pyridine] | 0.6 | – | – | – | – | – | – | – |
| [18F]c1ccc(-c2ccc3c(c2)[nH]c2ccncc23)cn1 [[18F]AV-1451, reference compound] | – | 0.57 | Higher uptake | ~6 | – | – | – | – |
| COc1ccc2nc3cc(N4CCC([18F])CC4)ccn3c2c1 [Compound T798, 3-(4-[18F]-fluoropiperidin-1-yl)-8-methoxybenzo[4,5]imidazol[1,2-a]pyridine, reference compound] | – | – | – | – | approximately 8.4±1.7 | approximately 18.0±3.2 | binds to tau, amyloid, and unidentified binding sites in normal human brain | bone uptake of radioactivity increases with time |
| COc1ccc2nc3cc(N4CCC(CC[18F])CC4)ccn3c2c1 [Compound T821, 3-(4-(2-[18F]-fluoroethyl)piperidin-1-yl)-8-methoxybenzo[4,5]imidazo[1,2-a]pyridine, reference compound] | – | – | – | – | approximately 2.22±0.45 | approximately 11.7±1.2 | binds to tau, amyloid, and unidentified binding sites in normal human brain | bone uptake of radioactivity increases with time |
